# Assay results from ChEMBL document CHEMBL2046386, “Potent and selective aminopyrimidine-based B-Raf inhibitors with favorable physicochemical and pharmacokinetic properties” (J Med Chem, 2012).
# Tests used:
# [1] = target: T1, Serine/threonine-protein kinase B-raf (Homo sapiens, UniProt P15056, V600E); assay: Inhibition of His6X-tagged human B-raf V600E mutant expressed in baculovirus infected insect cells coexpressing […] using [gamma33P]ATP after 60 mins by scintillation counting
# [2] = target: T1, Serine/threonine-protein kinase B-raf; assay: Inhibition of B-raf V600E mutant-mediated Erk phosphorylation in human MALM-3M cells by fluorometric analysis; format: cell-based
# [3] = Dissociation constant, pKa of the compound at acidic pH; format: physicochemical
# [4] = Thermodynamic solubility of the compound at 0.5 mg/ml after 24 hrs by shake flask method at pH 6.5; format: physicochemical; conditions: buffer, read-out: Therm_solubility
# [5] = Dissociation constant, pKa of the compound at basic pH; format: physicochemical
# COLO 205 [6] = assay: Antitumor activity against human COLO205 cells expressing B-raf V600E mutant xenografted in po dosed NCr nude mouse assessed as decrease in tumor volume administered once daily for 21 days measured twice a week up to 21 days; format: functional; conditions: for ED50 / ED90: Mus musculus, COLO 205, po, 504 h
# [7] = Thermodynamic solubility of the compound at 0.5 mg/ml after 24 hrs by shake flask method at pH 7.4; format: physicochemical; conditions: buffer, read-out: Therm_solubility
# [8] = Thermodynamic solubility of the compound at 0.5 mg/ml after 24 hrs by shake flask method at pH 1.2; format: physicochemical; conditions: buffer, read-out: Therm_solubility
# [9] = Oral bioavailability in rat at 5 mg/kg dosed as crystalline suspension in 20%HPBCD vehicle (20% hydroxypropyl-beta-cyclodextrin/80% water); format: ADME, organism-based; conditions: in vivo
# [10] = Volume of distribution at steady state in mouse at 2.5 mg/kg, iv; format: ADME, organism-based; set-up: dose 2.5 mg/kg, route intravenous; conditions: in vivo, read-out: Vdss
# [11] = target: RAF proto-oncogene serine/threonine-protein kinase (Homo sapiens, UniProt P04049); assay: Inhibition of wild type C-raf in presence of 1 mM ATP
# [12] = AUC in rat at 5 mg/kg, po dosed as crystalline suspension in 20%HPBCD vehicle (20% hydroxypropyl-beta-cyclodextrin/80% water); format: ADME, organism-based; set-up: dose 5 mg/kg, route oral; conditions: plasma
# [13] = Cmax in mouse at 30 mg/kg, po dosed as crystalline suspension in 20%HPBCD vehicle (20% hydroxypropyl-beta-cyclodextrin/80% water); format: ADME, organism-based; set-up: dose 30 mg/kg, route oral; conditions: in vivo
# HT-29 = assay: Antiproliferative activity against human HT-29 cells expressing B-raf V600E mutant and high level of EGFR; format: functional, cell-based
# [14] = Oral bioavailability in mouse at 10 mg/kg dosed as crystalline suspension in 20%HPBCD vehicle (20% hydroxypropyl-beta-cyclodextrin/80% water); format: ADME, organism-based; conditions: in vivo
# Homo sapiens [15] = species on record: Homo sapiens; assay: Selectivity index, ratio of IC50 for wild-type C-raf to IC50 for human Braf V600E mutant
# [16] = Plasma protein binding in mouse; format: ADME, cell-free; conditions: read-out: PPB (converted)
# [17] = Cmax in mouse at 10 mg/kg, po dosed as crystalline suspension in 20%HPBCD vehicle (20% hydroxypropyl-beta-cyclodextrin/80% water); format: ADME, organism-based; set-up: dose 10 mg/kg, route oral; conditions: in vivo
# [18] = Time-dependent inhibition of cytochrome P450; format: ADME
# [19] = AUC in mouse at 10 mg/kg, po dosed as crystalline suspension in 20%HPBCD vehicle (20% hydroxypropyl-beta-cyclodextrin/80% water); format: ADME, organism-based; set-up: dose 10 mg/kg, route oral; conditions: plasma
# [20] = AUC in rat at 25 mg/kg, po dosed as crystalline suspension in 20%HPBCD vehicle (20% hydroxypropyl-beta-cyclodextrin/80% water); format: ADME, organism-based; set-up: dose 25 mg/kg, route oral; conditions: plasma
# COLO 205 [21] = assay: Antiproliferative activity against human COLO205 cells expressing B-raf V600E mutant; format: functional, cell-based
# Homo sapiens [22] = species on record: Homo sapiens; assay: Selectivity index, ratio of IC50 for wild-type B-raf to IC50 for human Braf V600E mutant
# [23] = Cmax in rat at 5 mg/kg, po dosed as crystalline suspension in 20%HPBCD vehicle (20% hydroxypropyl-beta-cyclodextrin/80% water); format: ADME, organism-based; set-up: dose 5 mg/kg, route oral; conditions: in vivo
# NCI-H226 = assay: Antiproliferative activity against human NCI-H226 cells expressing wild-type B-raf; format: functional, cell-based
# [24] = target: Voltage-gated inwardly rectifying potassium channel KCNH2 (Homo sapiens, UniProt Q12809); assay: Inhibition of human Erg
# Mus musculus = assay: Toxicity in NCr nude mouse xenografted with human COLO205 cells expressing B-raf V600E mutant assessed as adverse effects; format: organism-based, COLO 205; conditions: in vivo
# [25] = Clearance in mouse at 2.5 mg/kg, iv; format: ADME, organism-based; set-up: dose 2.5 mg/kg, route intravenous; conditions: in vivo
# [26] = Lipophilicity, log P of the compound; format: physicochemical; conditions: octanol/water
# [27] = Cmax in mouse at 1 mg/kg, po dosed as crystalline suspension in 20%HPBCD vehicle (20% hydroxypropyl-beta-cyclodextrin/80% water); format: ADME, organism-based; set-up: dose 1 mg/kg, route oral; conditions: in vivo
# [28] = Cmax in rat at 25 mg/kg, po dosed as crystalline suspension in 20%HPBCD vehicle (20% hydroxypropyl-beta-cyclodextrin/80% water); format: ADME, organism-based; set-up: dose 25 mg/kg, route oral; conditions: in vivo
# [29] = Oral bioavailability in mouse at 30 mg/kg dosed as crystalline suspension in 20%HPBCD vehicle (20% hydroxypropyl-beta-cyclodextrin/80% water); format: ADME, organism-based; conditions: in vivo
# [30] = Oral bioavailability in rat at 25 mg/kg dosed as crystalline suspension in 20%HPBCD vehicle (20% hydroxypropyl-beta-cyclodextrin/80% water); format: ADME, organism-based; conditions: in vivo
# [31] = AUC in mouse at 1 mg/kg, po dosed as crystalline suspension in 20%HPBCD vehicle (20% hydroxypropyl-beta-cyclodextrin/80% water); format: ADME, organism-based; set-up: dose 1 mg/kg, route oral; conditions: plasma
# [32] = Oral bioavailability in mouse at 30 mg/kg dosed as crystalline suspension in 20%HPBCD vehicle (20% hydroxypropyl-beta-cyclodextrin/80% water); conditions: in vivo
# Salmonella typhimurium = assay: Induction of mutagenesis in Salmonella typhimurium by Ames test; format: toxicity, organism-based; conditions: salmonella enterica subsp. enterica serovar typhimurium
# RKO = assay: Antiproliferative activity against PTEN-deficient human RKO cells expressing B-raf V600E mutant and high level of EGFR; format: functional, cell-based
# [33] = target: Serine/threonine-protein kinase B-raf (Homo sapiens, UniProt P15056); assay: Inhibition of wild type B-raf in presence of 1 mM ATP
# [34] = Volume of distribution at steady state in rat at 1 mg/kg, iv dosed as crystalline suspension in 20%HPBCD vehicle (20% hydroxypropyl-beta-cyclodextrin/80% water); format: ADME, organism-based; set-up: dose 1 mg/kg, route intravenous; conditions: in vivo, read-out: Vdss
# [35] = Cmax in mouse at 50 mg/kg, po dosed as crystalline suspension in 20%HPBCD vehicle (20% hydroxypropyl-beta-cyclodextrin/80% water); format: ADME, organism-based; set-up: dose 50 mg/kg, route oral; conditions: in vivo
# [36] = Oral bioavailability in mouse at 1 mg/kg dosed as crystalline suspension in 20%HPBCD vehicle (20% hydroxypropyl-beta-cyclodextrin/80% water); format: ADME, organism-based; conditions: in vivo
# Cytochrome P450 2C9 = Cytochrome P450 2C9 (Homo sapiens, UniProt P11712); assay: Inhibition of CYP2C9; format: ADME
# [37] = Antiproliferative activity against human A375.X1 cells expressing B-raf V600E mutant; format: functional, cell-based
# [38] = AUC in mouse at 30 mg/kg, po dosed as crystalline suspension in 20%HPBCD vehicle (20% hydroxypropyl-beta-cyclodextrin/80% water); format: ADME, organism-based; set-up: dose 30 mg/kg, route oral; conditions: plasma
# [39] = Inhibition of cytochrome P450; format: ADME
# [40] = AUC in mouse at 50 mg/kg, po dosed as crystalline suspension in 20%HPBCD vehicle (20% hydroxypropyl-beta-cyclodextrin/80% water); format: ADME, organism-based; set-up: dose 50 mg/kg, route oral; conditions: plasma
# [41] = target: T1, Serine/threonine-protein kinase B-raf; assay: Inhibition of His6X-tagged human B-raf V600E mutant expressed in baculovirus infected insect cells coexpressing […] using [gamma33P]ATP after 60 mins by scintillation counting in presence of 1 mM ATP
# [42] = Clearance in rat at 1 mg/kg, iv dosed as crystalline suspension in 20%HPBCD vehicle (20% hydroxypropyl-beta-cyclodextrin/80% water); format: ADME, organism-based; set-up: dose 1 mg/kg, route intravenous; conditions: in vivo
# [43] = AUC in mouse at 30 mg/kg, po dosed in 0.5% methylcellulose/0.2% Tween 80/99.3% water; format: ADME, organism-based; set-up: dose 30 mg/kg, route oral; conditions: in vivo
# [44] = Oral bioavailability in mouse at 30 mg/kg; format: ADME, organism-based; conditions: in vivo
# [45] = AUC in mouse at 30 mg/kg, po dosed as as solution; format: ADME, organism-based; set-up: dose 30 mg/kg, route oral; conditions: plasma
# T1 sequence (P15056 2-766 V600E limits assumed): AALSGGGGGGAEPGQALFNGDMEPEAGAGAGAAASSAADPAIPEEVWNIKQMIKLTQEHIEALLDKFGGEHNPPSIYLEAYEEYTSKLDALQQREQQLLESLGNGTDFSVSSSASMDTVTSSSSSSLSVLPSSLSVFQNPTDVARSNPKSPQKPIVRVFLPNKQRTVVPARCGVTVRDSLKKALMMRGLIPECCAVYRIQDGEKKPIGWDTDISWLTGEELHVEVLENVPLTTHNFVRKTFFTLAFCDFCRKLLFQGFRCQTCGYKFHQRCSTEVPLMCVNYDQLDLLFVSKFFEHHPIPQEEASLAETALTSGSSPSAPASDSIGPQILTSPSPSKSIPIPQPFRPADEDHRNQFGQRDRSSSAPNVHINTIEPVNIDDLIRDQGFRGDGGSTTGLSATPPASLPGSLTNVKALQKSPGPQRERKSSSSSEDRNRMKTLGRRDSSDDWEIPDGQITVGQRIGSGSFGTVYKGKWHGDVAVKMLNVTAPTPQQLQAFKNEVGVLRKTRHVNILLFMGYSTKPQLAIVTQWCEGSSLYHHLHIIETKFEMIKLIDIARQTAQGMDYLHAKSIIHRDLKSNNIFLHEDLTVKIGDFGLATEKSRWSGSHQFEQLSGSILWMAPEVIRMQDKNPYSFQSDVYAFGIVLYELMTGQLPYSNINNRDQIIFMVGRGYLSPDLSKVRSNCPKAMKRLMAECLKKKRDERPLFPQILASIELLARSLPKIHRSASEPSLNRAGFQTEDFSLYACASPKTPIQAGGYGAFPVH
# Sequence of Voltage-gated inwardly rectifying potassium channel KCNH2 (Q12809 whole entry): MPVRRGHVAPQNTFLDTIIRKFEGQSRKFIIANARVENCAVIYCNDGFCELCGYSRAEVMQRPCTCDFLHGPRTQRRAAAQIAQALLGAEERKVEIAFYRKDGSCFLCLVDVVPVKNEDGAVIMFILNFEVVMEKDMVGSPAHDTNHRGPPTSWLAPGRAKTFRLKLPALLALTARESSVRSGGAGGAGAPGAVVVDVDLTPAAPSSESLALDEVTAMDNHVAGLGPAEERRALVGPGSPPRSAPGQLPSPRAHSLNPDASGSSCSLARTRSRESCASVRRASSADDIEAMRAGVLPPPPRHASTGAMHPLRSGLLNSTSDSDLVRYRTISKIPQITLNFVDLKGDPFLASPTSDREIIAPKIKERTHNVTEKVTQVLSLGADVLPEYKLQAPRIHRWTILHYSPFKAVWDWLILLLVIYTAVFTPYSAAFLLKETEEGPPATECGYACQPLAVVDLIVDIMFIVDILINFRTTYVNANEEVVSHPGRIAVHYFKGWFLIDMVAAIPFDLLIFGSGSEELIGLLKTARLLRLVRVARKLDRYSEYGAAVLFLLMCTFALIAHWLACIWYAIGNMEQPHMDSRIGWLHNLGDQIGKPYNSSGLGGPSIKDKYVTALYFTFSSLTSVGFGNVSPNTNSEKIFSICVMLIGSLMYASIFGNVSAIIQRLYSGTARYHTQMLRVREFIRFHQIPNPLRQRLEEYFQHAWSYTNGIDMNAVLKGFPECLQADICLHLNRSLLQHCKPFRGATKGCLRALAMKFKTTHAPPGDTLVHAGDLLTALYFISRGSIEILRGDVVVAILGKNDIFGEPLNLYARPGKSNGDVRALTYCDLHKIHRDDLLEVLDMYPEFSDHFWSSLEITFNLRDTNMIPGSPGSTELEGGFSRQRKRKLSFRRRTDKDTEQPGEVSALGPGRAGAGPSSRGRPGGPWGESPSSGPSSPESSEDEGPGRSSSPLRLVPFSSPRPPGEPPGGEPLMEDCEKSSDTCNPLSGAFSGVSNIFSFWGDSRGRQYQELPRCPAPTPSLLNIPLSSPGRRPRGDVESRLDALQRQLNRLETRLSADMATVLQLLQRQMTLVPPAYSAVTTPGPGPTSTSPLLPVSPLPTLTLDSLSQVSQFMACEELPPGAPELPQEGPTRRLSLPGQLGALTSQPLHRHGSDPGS
# Sequence of RAF proto-oncogene serine/threonine-protein kinase (P04049 whole entry): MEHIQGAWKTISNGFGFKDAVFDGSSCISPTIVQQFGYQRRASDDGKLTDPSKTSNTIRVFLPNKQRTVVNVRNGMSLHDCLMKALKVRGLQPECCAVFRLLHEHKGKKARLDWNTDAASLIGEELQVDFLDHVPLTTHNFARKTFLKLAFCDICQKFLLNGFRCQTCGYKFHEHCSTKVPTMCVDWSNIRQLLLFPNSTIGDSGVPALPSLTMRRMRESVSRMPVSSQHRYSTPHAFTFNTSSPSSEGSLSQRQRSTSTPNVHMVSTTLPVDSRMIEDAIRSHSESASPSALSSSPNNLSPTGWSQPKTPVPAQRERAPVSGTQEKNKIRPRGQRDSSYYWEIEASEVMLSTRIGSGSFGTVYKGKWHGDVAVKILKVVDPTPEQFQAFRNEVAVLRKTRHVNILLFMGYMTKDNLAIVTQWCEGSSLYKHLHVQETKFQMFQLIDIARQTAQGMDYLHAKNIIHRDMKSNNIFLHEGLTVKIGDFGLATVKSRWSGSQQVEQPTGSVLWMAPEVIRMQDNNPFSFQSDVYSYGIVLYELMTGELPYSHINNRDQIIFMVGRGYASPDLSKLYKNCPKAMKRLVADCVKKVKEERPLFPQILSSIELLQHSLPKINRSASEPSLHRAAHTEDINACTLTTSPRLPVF
# Sequence of Serine/threonine-protein kinase B-raf (Homo sapiens, UniProt P15056) (P15056 whole entry): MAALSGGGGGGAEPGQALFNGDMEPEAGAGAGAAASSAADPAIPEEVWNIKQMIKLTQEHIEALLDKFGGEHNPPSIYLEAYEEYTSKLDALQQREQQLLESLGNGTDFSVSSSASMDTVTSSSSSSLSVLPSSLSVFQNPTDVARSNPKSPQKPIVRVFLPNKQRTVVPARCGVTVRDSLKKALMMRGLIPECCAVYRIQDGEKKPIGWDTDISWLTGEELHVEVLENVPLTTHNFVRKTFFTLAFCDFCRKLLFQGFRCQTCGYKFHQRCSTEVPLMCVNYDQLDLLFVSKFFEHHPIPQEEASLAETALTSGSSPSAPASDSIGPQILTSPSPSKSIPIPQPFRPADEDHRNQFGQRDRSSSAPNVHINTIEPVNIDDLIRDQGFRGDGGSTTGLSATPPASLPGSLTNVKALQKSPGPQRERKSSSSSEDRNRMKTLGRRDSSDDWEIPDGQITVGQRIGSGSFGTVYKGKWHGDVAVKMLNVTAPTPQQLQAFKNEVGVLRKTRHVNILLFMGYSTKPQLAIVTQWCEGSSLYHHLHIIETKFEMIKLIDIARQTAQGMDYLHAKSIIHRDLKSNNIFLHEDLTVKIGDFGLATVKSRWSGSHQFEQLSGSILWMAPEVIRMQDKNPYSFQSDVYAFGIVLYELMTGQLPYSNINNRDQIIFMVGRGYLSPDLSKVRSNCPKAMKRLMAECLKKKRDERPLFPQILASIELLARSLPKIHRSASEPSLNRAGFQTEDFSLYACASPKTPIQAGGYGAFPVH
# Sequence of Cytochrome P450 2C9 (P11712 whole entry): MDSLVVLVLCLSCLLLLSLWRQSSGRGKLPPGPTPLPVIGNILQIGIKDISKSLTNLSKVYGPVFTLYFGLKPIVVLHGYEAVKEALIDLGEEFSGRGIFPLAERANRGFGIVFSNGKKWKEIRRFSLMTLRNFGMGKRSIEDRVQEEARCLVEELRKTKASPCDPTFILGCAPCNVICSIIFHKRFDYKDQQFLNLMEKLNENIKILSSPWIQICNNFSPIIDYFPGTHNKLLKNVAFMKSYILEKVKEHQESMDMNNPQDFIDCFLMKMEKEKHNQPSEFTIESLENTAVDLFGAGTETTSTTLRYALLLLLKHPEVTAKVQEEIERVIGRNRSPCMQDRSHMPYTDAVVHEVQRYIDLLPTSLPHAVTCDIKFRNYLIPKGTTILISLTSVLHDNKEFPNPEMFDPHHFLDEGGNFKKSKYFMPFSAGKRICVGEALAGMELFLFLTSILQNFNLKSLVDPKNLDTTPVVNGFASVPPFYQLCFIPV
smiles,measurement,setting,value
CCCS(=O)(=O)Nc1ccc(Cl)c(NC(=O)c2cccc3c(N)ncnc23)c1F,IC50,[1],0.59 nM
same,IC50,[2],9.5 nM
CCCS(=O)(=O)Nc1ccc(F)c(C(=O)Nc2cnc3[nH]nc(OC)c3c2)c1F,pKa,[3],0.7
same,solubility thermodynamic at 24 h,[4],4 µg/mL
same,pKa,[5],0.7
same,TGI,COLO 205 [6],76%
same,ED50,COLO 205 [6],25.2 mg/kg
same,ED90,COLO 205 [6],139 mg/kg
same,solubility thermodynamic at 24 h,[7],9 µg/mL
same,solubility thermodynamic at 24 h,[8],3 µg/mL
Nc1ncnc2c(C(=O)Nc3c(Cl)ccc(NS(=O)(=O)CCCF)c3F)csc12,bioavailability,[9],68%
same,Vd,[10],0.12 L/kg
same,IC50,[11],73 nM
same,AUC,[12],651 µM·h
same,IC50,[1],0.18 nM
same,Cmax,[13],162 µM
same,EC50,HT-29,24 nM
same,bioavailability,[14],> 100%
same,Ratio IC50,Homo sapiens [15],152
same,fraction unbound,[16],0.03
same,Cmax,[17],73 µM
same,inhibition (INH),[18],Not Active
same,AUC,[19],867 µM·h
same,AUC,[20],2970 µM·h
same,IC50,[2],4.6 nM
same,EC50,COLO 205 [21],5 nM
same,Ratio IC50,Homo sapiens [22],11
same,Cmax,[23],44.5 µM
same,EC50,NCI-H226,> 10000 nM
same,inhibition (INH),[24],Not Active
same,Activity,Mus musculus,Non-toxic
same,clearance,[25],0.79 mL/min/kg
same,logP,[26],3.6
same,Cmax,[27],7.93 µM
same,Cmax,[28],201 µM
same,bioavailability,[29],> 100%
same,bioavailability,[30],62%
same,AUC,[31],84 µM·h
same,solubility thermodynamic at 24 h,[4],10 µg/mL
same,bioavailability,[32],> 100%
same,Activity,Salmonella typhimurium,Non-toxic
same,EC50,RKO,2310 nM
same,pKa,[5],3.6
same,IC50,[33],22 nM
same,TGI,COLO 205 [6],130%
same,ED50,COLO 205 [6],1.1 mg/kg
same,ED90,COLO 205 [6],6.2 mg/kg
same,Vd,[34],0.14 L/kg
same,Cmax,[35],249 µM
same,bioavailability,[36],> 100%
same,IC50,Cytochrome P450 2C9,9000 nM
same,EC50,[37],2 nM
same,AUC,[38],1680 µM·h
same,IC50,[39],> 25000 nM
same,AUC,[40],3250 µM·h
same,solubility thermodynamic at 24 h,[8],700 µg/mL
same,IC50,[41],2 nM
same,clearance,[42],0.19 mL/min/kg
CCCS(=O)(=O)Nc1ccc(F)c(NC(=O)c2cccc3c(N)ncnc23)c1Cl,IC50,[1],0.54 nM
same,IC50,[2],7.7 nM
CCCS(=O)(=O)Nc1ccc(F)c(NC(=O)c2cccc3c(N)ncnc23)c1F,pKa,[3],4.5
same,AUC,[43],290 µM·h
same,Vd,[10],0.4 L/kg
same,IC50,[1],1.8 nM
same,fraction unbound,[16],0.015
same,IC50,[2],9.5 nM
same,clearance,[25],2.5 mL/min/kg
same,logP,[26],2.9
same,solubility thermodynamic at 24 h,[4],1 µg/mL
same,pKa,[5],4.5
same,bioavailability,[44],71%
same,AUC,[45],331 µM·h
same,solubility thermodynamic at 24 h,[8],> 1000 µg/mL
CCCS(=O)(=O)Nc1ccc(F)c(NC(=O)Nc2cc(NC)ncn2)c1F,IC50,[1],36 nM
same,IC50,[2],168 nM
same,solubility thermodynamic at 24 h,[8],900 µg/mL
CCCS(=O)(=O)Nc1ccc(F)c(NC(=O)c2csc3c(N)ncnc23)c1F,AUC,[43],874 µM·h
same,Vd,[10],0.2 L/kg
same,IC50,[1],2.5 nM
same,fraction unbound,[16],0.016
same,IC50,[2],15 nM
same,Activity,Mus musculus,Non-toxic
same,clearance,[25],1 mL/min/kg
same,logP,[26],2.7
same,solubility thermodynamic at 24 h,[4],5 µg/mL
same,pKa,[5],3.6
same,bioavailability,[44],100%
same,solubility thermodynamic at 24 h,[8],> 1000 µg/mL
CCCS(=O)(=O)Nc1ccc(F)c(NC(=O)Nc2cc(N)ncn2)c1F,IC50,[2],438 nM
